Key:
[1] = target: 5-hydroxytryptamine receptor 7 (Homo sapiens, UniProt P34969); test: Displacement of [3H]LSD from human recombinant 5-HT7 receptor expressed in CHOK1 cells incubated for 60 mins by microbeta plate reader based method; type: cell-based, CHO-K1
D(2) dopamine receptor = D(2) dopamine receptor (Homo sapiens, UniProt P14416); test: Displacement of [3H]N-methylspiperone from human recombinant dopamine D2 receptor expressed in CHOK1 cells incubated for 60 mins by microbeta plate reader based method; type: cell-based, CHO-K1
[2] = target: T1, 5-hydroxytryptamine receptor 6 (Homo sapiens, UniProt P50406); test: Displacement of [3H]LSD from human recombinant 5-HT6 receptor expressed in HEK293 cells incubated for 60 mins by microbeta plate reader based method; type: cell-based
[3] = target: D(3) dopamine receptor (Homo sapiens) (UniProt P35462); test: Displacement of [3H]N-methylspiperone from dopamine D3 receptor (unknown origin) assessed as total radioligand binding at 1.66 x 10^-7 M incubated for 60 mins by microbeta plate reader based method
[4] = target: T2, 5-hydroxytryptamine receptor 1A (Rattus norvegicus, UniProt P19327); test: Displacement of [3H]8-OH-DPAT from rat hippocampus 5-HT1A receptor incubated for 20 mins by microbeta plate reader based method
T2 sequence (P19327 whole entry): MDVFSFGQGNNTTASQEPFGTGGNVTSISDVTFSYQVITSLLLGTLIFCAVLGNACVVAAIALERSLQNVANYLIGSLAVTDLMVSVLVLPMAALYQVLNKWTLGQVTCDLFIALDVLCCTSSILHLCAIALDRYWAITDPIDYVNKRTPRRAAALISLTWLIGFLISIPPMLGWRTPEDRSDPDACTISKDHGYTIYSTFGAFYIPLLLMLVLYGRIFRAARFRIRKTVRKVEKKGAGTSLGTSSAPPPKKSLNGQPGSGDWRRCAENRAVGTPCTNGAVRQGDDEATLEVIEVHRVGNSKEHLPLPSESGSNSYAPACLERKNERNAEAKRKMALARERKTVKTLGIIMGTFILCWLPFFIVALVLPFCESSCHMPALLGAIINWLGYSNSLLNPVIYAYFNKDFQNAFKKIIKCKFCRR

[5] = target: D(3) dopamine receptor (Homo sapiens) (UniProt P35462); test: Displacement of [3H]N-methylspiperone from dopamine D3 receptor (unknown origin) assessed as total radioligand binding at 1 uM incubated for 60 mins by microbeta plate reader based method
[6] = target: T3, 5-hydroxytryptamine receptor 1A (Rattus norvegicus) (UniProt P19327); test: Displacement of [3H]8-OH-DPAT from rat hippocampus 5-HT1A receptor assessed as total radioligand binding at 1 uM incubated for 20 mins by microbeta plate reader based method
T3 sequence (whole entry): T2 sequence (P19327 whole entry)

[7] = target: T1, 5-hydroxytryptamine receptor 6; test: Displacement of [3H]LSD from human recombinant 5-HT6 receptor expressed in HEK293 cells assessed as total radioligand binding at 1.66 x 10^-7 M incubated for 60 mins by microbeta plate reader based method; type: cell-based
[8] = target: T1, 5-hydroxytryptamine receptor 6; test: Displacement of [3H]LSD from human recombinant 5-HT6 receptor expressed in HEK293 cells assessed as total radioligand binding at 1 uM incubated for 60 mins by microbeta plate reader based method; type: cell-based
[9] = target: T3, 5-hydroxytryptamine receptor 1A (Rattus norvegicus); test: Displacement of [3H]8-OH-DPAT from rat hippocampus 5-HT1A receptor assessed as total radioligand binding at 1.66 x 10^-7 M incubated for 20 mins by microbeta plate reader based method
Mus musculus [10] = test: Anxiolytic-like activity in Swiss mouse assessed as increase in number of punished crossings measured during 60 seconds period at 5 mg/kg, ip by four-plate test; type: functional; details: route intraperitoneal
Mus musculus [11] = test: Anxiolytic-like activity in Swiss mouse assessed as increase in number of punished crossings measured during 60 seconds period at 2.5 mg/kg, ip by four-plate test; type: functional; details: route intraperitoneal
[12] = Selectivity index, ratio of Ki for rat hippocampus 5-HT1A receptor to Ki for human recombinant 5-HT7 receptor

5-hydroxytryptamine receptor 7, sequence (P34969 whole entry): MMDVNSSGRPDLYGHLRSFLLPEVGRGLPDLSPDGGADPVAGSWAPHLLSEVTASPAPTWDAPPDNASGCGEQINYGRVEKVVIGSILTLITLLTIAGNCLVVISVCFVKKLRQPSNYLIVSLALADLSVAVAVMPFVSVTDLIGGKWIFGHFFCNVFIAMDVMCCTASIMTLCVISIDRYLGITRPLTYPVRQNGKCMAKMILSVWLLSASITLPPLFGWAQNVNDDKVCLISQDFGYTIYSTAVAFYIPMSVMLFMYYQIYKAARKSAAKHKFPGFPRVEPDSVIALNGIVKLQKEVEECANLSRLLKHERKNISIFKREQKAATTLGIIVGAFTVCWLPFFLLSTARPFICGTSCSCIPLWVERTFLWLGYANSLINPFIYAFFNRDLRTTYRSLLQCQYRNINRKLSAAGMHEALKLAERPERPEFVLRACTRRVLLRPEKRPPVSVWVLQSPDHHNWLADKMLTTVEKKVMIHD
D(2) dopamine receptor, sequence (P14416 whole entry): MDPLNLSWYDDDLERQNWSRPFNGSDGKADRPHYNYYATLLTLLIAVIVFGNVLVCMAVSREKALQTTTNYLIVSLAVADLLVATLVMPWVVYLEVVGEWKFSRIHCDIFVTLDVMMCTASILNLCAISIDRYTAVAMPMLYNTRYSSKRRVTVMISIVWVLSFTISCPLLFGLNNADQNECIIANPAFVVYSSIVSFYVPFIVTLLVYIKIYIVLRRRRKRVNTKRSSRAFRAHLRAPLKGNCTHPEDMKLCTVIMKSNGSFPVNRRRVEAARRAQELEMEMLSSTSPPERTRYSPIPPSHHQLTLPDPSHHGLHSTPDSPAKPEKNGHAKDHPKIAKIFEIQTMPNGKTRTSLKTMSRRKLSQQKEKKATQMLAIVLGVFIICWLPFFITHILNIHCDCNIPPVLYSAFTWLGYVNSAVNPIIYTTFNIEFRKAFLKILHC
T1 sequence (P50406 whole entry): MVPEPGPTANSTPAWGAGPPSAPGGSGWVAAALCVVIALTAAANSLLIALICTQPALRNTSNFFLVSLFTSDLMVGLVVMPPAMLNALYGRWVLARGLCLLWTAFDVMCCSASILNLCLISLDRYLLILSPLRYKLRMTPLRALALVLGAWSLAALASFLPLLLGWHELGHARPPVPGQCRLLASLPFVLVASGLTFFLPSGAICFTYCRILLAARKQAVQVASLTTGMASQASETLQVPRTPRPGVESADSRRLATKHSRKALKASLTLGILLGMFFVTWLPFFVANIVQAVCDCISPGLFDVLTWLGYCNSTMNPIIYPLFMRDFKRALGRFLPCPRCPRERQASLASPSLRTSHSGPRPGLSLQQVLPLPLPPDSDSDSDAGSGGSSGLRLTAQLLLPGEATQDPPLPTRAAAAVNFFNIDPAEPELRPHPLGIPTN
D(3) dopamine receptor (Homo sapiens), sequence (P35462 whole entry): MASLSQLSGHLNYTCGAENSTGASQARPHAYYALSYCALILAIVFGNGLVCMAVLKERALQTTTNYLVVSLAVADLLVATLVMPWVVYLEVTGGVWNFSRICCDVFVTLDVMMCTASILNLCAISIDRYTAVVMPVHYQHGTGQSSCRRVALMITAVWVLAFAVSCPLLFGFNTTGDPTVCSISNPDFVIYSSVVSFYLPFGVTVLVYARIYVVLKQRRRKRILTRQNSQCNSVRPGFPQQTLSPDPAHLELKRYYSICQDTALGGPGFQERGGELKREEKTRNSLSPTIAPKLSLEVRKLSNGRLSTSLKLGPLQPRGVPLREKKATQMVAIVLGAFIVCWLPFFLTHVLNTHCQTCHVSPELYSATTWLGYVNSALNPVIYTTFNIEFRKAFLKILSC

Cn1c(=O)c2c(nc3n(CCCCCN4CCN(c5ccccc5O)CC4)c(=O)ccn23)n(C)c1=O
Ki [1]: 473 nM | Ki (D(2) dopamine receptor): 340 nM | Ki [2]: > 1000 nM | Activity [3]: 67% | Ki [4]: 2 nM | Activity [5]: 46%

Cc1cccc(N2CCN(CCCCn3ccn4c5c(=O)n(C)c(=O)n(C)c5nc34)CC2)c1C
Activity [6]: 9% | Activity [7]: 91% | Activity [8]: 62% | Activity [3]: 47% | Activity [9]: 48% | Activity [5]: 13%

CC[C@@H](CO)NC(=O)[C@@H]1C=C2c3cccc4c3c(cn4C)C[C@H]2N(C)C1
Activity [6]: 11% | Activity [9]: 18%

Cn1c(=O)c2c(nc3n(CCCCN4CCN(c5ccc(Cl)cc5)CC4)c(=O)ccn23)n(C)c1=O
Ki [1]: 61 nM | Ki (D(2) dopamine receptor): 68 nM | Ki [2]: 86 nM | Activity [3]: 96% | Ki [4]: 58 nM | Activity [5]: 52%

Cn1c(=O)c2c(nc3n(CCCCCN4CCN(c5ccc(Cl)c(Cl)c5)CC4)c(=O)ccn23)n(C)c1=O
Activity [6]: 52% | Activity [7]: 100% | Activity [8]: 79% | Activity [3]: 96% | Activity [9]: 86% | Activity [5]: 61%

CN1C(=O)CN=C(c2ccccc2)c2cc(Cl)ccc21 [DIAZEPAM]
Activity (Mus musculus [10]): 57% | Activity (Mus musculus [11]): 52%

Cn1c(=O)c2c(nc3n(CCCCN4CCN(c5ccc(Cl)c(Cl)c5)CC4)ccn23)n(C)c1=O
Activity [6]: 9% | Activity [7]: 91% | Activity [8]: 67% | Activity [3]: 31% | Activity [9]: 51% | Activity [5]: 0%

Cc1cccc(N2CCN(CCCCn3c(=O)ccn4c5c(=O)n(C)c(=O)n(C)c5nc34)CC2)c1C
Activity [6]: 42% | Activity [7]: 100% | Activity [8]: 94% | Activity [3]: 100% | Activity [9]: 85% | Activity [5]: 73%

Cn1c(=O)c2c(nc3n(CCCCN4CCN(c5ccccc5O)CC4)c(=O)ccn23)n(C)c1=O
Activity [6]: 79% | Activity [7]: 100% | Activity [8]: 100% | Activity [3]: 84% | Activity [9]: 97% | Activity [5]: 26%

Cn1c(=O)c2c(nc3n(CCCCN4CCN(c5ccc(Cl)c(Cl)c5)CC4)c(=O)ccn23)n(C)c1=O
Activity [6]: 84% | Activity [7]: 100% | Activity [8]: 67% | Activity [3]: 99% | Activity [9]: 97% | Activity [5]: 98%

Cn1c(=O)c2c(nc3n(CCCCCN4CCN(c5ccc(Cl)c(Cl)c5)CC4)ccn23)n(C)c1=O
Activity [6]: 3% | Activity [7]: 90% | Activity [8]: 62% | Activity [3]: 67% | Activity [9]: 78% | Activity [5]: 16%

Cn1c(=O)c2c(nc3n(CCCCN4CCN(c5ccccc5O)CC4)ccn23)n(C)c1=O
Ki [1]: 1360 nM | Ki (D(2) dopamine receptor): 700 nM | Activity [6]: 7% | Activity [7]: 99% | Activity [8]: 90% | Activity [3]: 67% | Activity [9]: 40% | Ratio Ki [12]: 0.002 | Ki [4]: 2 nM | Activity [5]: 69%

Cc1cn2c3c(=O)n(C)c(=O)n(C)c3nc2n1CCCCN1CCN(c2ccccc2O)CC1
Ki [1]: 510 nM | Ki (D(2) dopamine receptor): 430 nM | Activity [6]: 8% | Activity [7]: 90% | Activity [8]: 90% | Activity [3]: 86% | Activity [9]: 44% | Ratio Ki [12]: 0.003 | Ki [4]: 2 nM | Activity [5]: 67%

Cc1cn2c3c(=O)n(C)c(=O)n(C)c3nc2n1CCCCN1CCN(c2ccc(Cl)cc2)CC1
Ki [1]: 361 nM | Ki (D(2) dopamine receptor): 123 nM | Ki [2]: 1460 nM | Ratio Ki [12]: 0.1 | Ki [4]: 38 nM

Cc1cc2c(s1)Nc1ccccc1N=C2N1CCN(C)CC1
Activity [3]: 24% | Activity [5]: 10%

Cn1c(=O)c2c(nc3n(CCCCCN4CCN(c5ccc(Cl)cc5)CC4)ccn23)n(C)c1=O
Ki [1]: 3640 nM | Ki (D(2) dopamine receptor): 259 nM | Ki [2]: 1590 nM | Ratio Ki [12]: 0.02 | Ki [4]: 73 nM

Cn1c(=O)c2c(nc3n(CCCCCN4CCN(c5ccc(Cl)cc5)CC4)c(=O)ccn23)n(C)c1=O
Ki [1]: > 1000 nM | Ki (D(2) dopamine receptor): 215 nM | Ki [2]: 839 nM | Activity [3]: 99% | Ki [4]: 80 nM | Activity [5]: 92%

Cc1cn2c3c(=O)n(C)c(=O)n(C)c3nc2n1CCCCCN1CCN(c2ccc(Cl)cc2)CC1
Ki [1]: 691 nM | Ki (D(2) dopamine receptor): 106 nM | Ki [2]: 837 nM | Ratio Ki [12]: 0.09 | Ki [4]: 62 nM

Cc1cn2c3c(=O)n(C)c(=O)n(C)c3nc2n1CCCCN1CCN(c2ccc(Cl)c(Cl)c2)CC1
Activity [6]: 13% | Activity [7]: 110% | Activity [8]: 46% | Activity [3]: 90% | Activity [9]: 74% | Activity [5]: 64%

Cc1cccc(N2CCN(CCCCCn3c(=O)ccn4c5c(=O)n(C)c(=O)n(C)c5nc34)CC2)c1C
Activity [6]: 50% | Activity [7]: 85% | Activity [8]: 59% | Activity [3]: 83% | Activity [9]: 88% | Activity [5]: 67%

Cn1c(=O)c2c(nc3n(CCCCCN4CCN(c5ccccc5O)CC4)ccn23)n(C)c1=O
Ki [1]: 230 nM | Ki (D(2) dopamine receptor): 265 nM | Activity [6]: 0% | Activity [7]: 76% | Activity [8]: 67% | Activity [3]: 69% | Activity [9]: 57% | Ratio Ki [12]: 0.03 | Ki [4]: 7 nM | Activity [5]: 3%

CSc1ccc2c(c1)C(N1CCN(C)CC1)Cc1ccccc1S2 (stereo not given)
Activity [7]: 3% | Activity [8]: 1%

Cn1c(=O)c2c(nc3n(CCCCN4CCN(c5ccc(Cl)cc5)CC4)c(-c4ccccc4)cn23)n(C)c1=O
Ki [1]: 37 nM | Ki (D(2) dopamine receptor): 23 nM | Ki [2]: 447 nM | Ratio Ki [12]: 1.2 | Ki [4]: 46 nM

Cc1cn2c3c(=O)n(C)c(=O)n(C)c3nc2n1CCCCCN1CCN(c2ccccc2O)CC1
Ki [1]: 124 nM | Ki (D(2) dopamine receptor): 468 nM | Activity [6]: 0% | Activity [7]: 84% | Activity [8]: 77% | Activity [3]: 85% | Activity [9]: 52% | Ratio Ki [12]: 0.1 | Ki [4]: 12 nM | Activity [5]: 71%

— ChEMBL document CHEMBL3421538, “Structure-activity relationships and molecular studies of novel arylpiperazinylalkyl purine-2,4-diones and purine-2,4,8-triones with antidepressant and anxiolytic-like activity” (Eur J Med Chem, 2015)
